# Results as given in patent US20030040538A1, “Novel substituted tricyclic compounds” (priority 1999, published 2003).
# Where a name gives a salt, the structure may show the parent alone.
# Biological target: T1, human β3 (Homo sapiens, UniProt P13945)
# T1 construct: the full length human β3 gene was obtained from a human genomic library; expressed in transfected cells; host or cells: CHO (Chinese hamster ovary) cells, pcDNA3 vector
# Assay: Human β3-agonist activities (cAMP in CHO cells transfected with human β3 gene)
# Type: cell-based
# Settings: CHO cells expressing human β3; for EC50: cAMP quantitated with EIA kit after 30 minutes, read-out: human β3-agonist activity (ED50); for Emax: read-out: intrinsic activity as compared with Isoproterenol
# Description: Human β3-Agonist Activities
# Human β3-agonist activities were determined using CHO (Chinese hamster ovary) cells transfected with pcDNA3 (mfd. by Invitrogen) to which human β3 gene had been inserted. Human β3 fragment was first obtained from human adipose tissue cDNA (mfd. by Clonetech) by PCR using the primer of β3 (Krief, et al., J. Clin. Invest., 91, p. 344 (1993)). The human β3 fragment obtained was then used as a probe and then the full length human β3 gene was obtained from a human genomic library (mfd. by Clonetech).
# The above cells were cultured in a Ham F-12 medium supplemented with 10% fetal bovine serum (mfd. by Dainippon Pharmaceutical), 400 μg/mL geneticin (Gibco BRL), 100 U/mL penicillin and 100 μg/mL streptomycin. After placing these cells (5×10^5) into a 6-well plate and culturing them for 24 hours, they were allowed to stand on a serum-free Ham F-12 medium for 2 hours. The compound was first dissolved in DMSO, repeatedly diluted by ten times with Ham F-12 supplemented with 1 mM isobutylmethylxanthine and 1 mM ascorbic acid to a final concentration of from 10^−5 to 10^−12 M, and then added to the cells.
# After the cells were cultured for 30 minutes, the medium was removed followed by addition of 0.5 mL of an aqueous 1 N sodium hydroxide solution. The medium was allowed to stand for 20 minutes and then 0.5 mL of an aqueous 1 N acetic acid solution was added to the medium. The medium was stirred and centrifuged followed by quantitating cAMP with cAMP EIA kit (mfd. by Cayman). Isoproterenol was purchased from RBI (Research Biochemicals International).
# [1] = cAMP, relative to Isoproterenol
# T1 sequence (P13945 whole entry): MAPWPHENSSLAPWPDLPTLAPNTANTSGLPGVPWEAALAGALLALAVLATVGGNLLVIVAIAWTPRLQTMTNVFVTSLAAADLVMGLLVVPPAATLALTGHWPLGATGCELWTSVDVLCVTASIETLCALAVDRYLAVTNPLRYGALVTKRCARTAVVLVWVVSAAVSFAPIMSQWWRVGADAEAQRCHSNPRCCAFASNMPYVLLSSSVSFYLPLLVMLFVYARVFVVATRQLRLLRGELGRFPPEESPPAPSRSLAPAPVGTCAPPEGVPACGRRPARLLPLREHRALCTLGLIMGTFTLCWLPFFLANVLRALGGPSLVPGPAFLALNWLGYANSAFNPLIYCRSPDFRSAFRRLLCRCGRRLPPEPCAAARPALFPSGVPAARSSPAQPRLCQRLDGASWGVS
EC50 [nM],intrinsic activity as compared with Isoproterenol [1] [%],Emax [1] [%],Structure (SMILES)
0.8,,82,"CS(=O)(=O)Nc1cccc([C@@H](O)CNCCOc2ccc3c(c2)[nH]c2cc(O)ccc23)c1 [Example 2, (R)-N-[3-[2-[2-(7-hydroxy-9H-carbazol-2-yloxy)ethylamino]-1-hydroxyethyl]phenyl]methanesulfonamide Hydrochloride]"
0.35,,47,"CC(=O)Nc1ccc2c(c1)[nH]c1cc(OCCNC[C@H](O)c3cccc(NS(C)(=O)=O)c3)ccc12 [Example 8, (R)-N-[3-[2-[2-(7-acetamido-9H-carbazol-2-yloxy)-ethylamino]-1-hydroxyethyl]phenyl]methanesulfonamide Hydrochloride]"
0.16,,96,"CS(=O)(=O)Nc1cccc([C@@H](O)CNCCOc2ccc3c(c2)[nH]c2cc(NS(C)(=O)=O)ccc23)c1 [Example 35, (R)-N-[3-[1-hydroxy-2-[2-(7-N′-methylsulfonylamino-9H-carbazol-2-yloxy)ethylamino]ethyl]phenyl]methanesulfonamide Hydrochloride]"

# The remaining lines, values behind:
Structure (SMILES),EC50 [nM],intrinsic activity as compared with Isoproterenol [1] [%],Emax [1] [%]
"CCN(c1ccc2c(c1)[nH]c1cc(OCCNC[C@H](O)c3cccc(NS(C)(=O)=O)c3)ccc12)S(C)(=O)=O.Cl [Example 33, (R)-N-[3-[2-[2-[7-(N′-ethyl-N′-methylsulfonylamino)-9H-carbazol-2-yloxy]ethylamino]-1-hydroxyethyl]phenyl]methanesulfonamide Hydrochloride]",0.22,94,
"COCCOc1ccc2c(c1)[nH]c1cc(OCCNC[C@H](O)c3cccc(NS(C)(=O)=O)c3)ccc12 [Example 43, (R)-N-[3-[1-hydroxy-2-[2-[7-(2-methoxyethoxy)-9H-carbazol-2-yloxy]ethylamino]ethyl]phenyl]methanesulfonamide Hydrochloride]",0.69,,114
"CS(=O)(=O)Nc1cc([C@@H](O)CNCCOc2ccc3c(c2)[nH]c2cc(O)ccc23)ccc1Cl [Example 3, (R)-N-[2-chloro-5-[2-[2-(7-hydroxy-9H-carbazol-2-yloxy)ethylamino]-1-hydroxyethyl]phenyl]methanesulfonamide Hydrochloride]",1.5,,75
"CS(=O)(=O)Nc1cccc([C@@H](O)CNCCOc2ccc3c(c2)[nH]c2cc(N)ccc23)c1 [Example 9, (R)-N-[3-[2-[2-(7-amino-9H-carbazol-2-yloxy)ethylamino]-1-hydroxyethyl]phenyl]methanesulfonamide Dihydrochloride]",1,,102
CC(C)(C)C(=O)Oc1ccc2c(c1)[nH]c1cc(OCCNCC(O)c3cccc(NS(C)(=O)=O)c3)ccc12 (stereo not drawn) [Example 10],2.4,,112
"CS(=O)(=O)Nc1cccc([C@@H](O)CNCCOc2ccc3c(c2)[nH]c2cc(OCC(=O)O)ccc23)c1 [Example 45, (R)-N-[3-[2-[2-(7-hydroxycarbonylmethoxy-9H-carbazol-2-yloxy)ethylamino]-1-hydroxyethyl]phenyl]methanesulfonamide]",2.6,,114
